Earlier results in patent US20240237650A1, “AQUEOUS FUNGICIDE MIXTURE FORMULATION” (ADAMA MAKHTESHIM LTD., priority 2021, published 2024).
Where two headings read alike, the source gives them in different places.

Conditions: 20° C.

Compound: CO/C=C(/C(=O)OC)c1ccccc1Oc1cc(Oc2ccccc2C#N)ncn1 [azoxystrobin, methyl (E)-2-{2[6-(2-cyanophenoxy)pyrimidin-4-yloxy]phenyl}-3-methoxyacrylate]
- solubility of azoxystrobin in water (pH 5.2 and 7.0): 6.7 µg/mL
- solubility of azoxystrobin in water (pH 9.2): 5.9 µg/mL
